Results from ChEMBL document CHEMBL5634096, “Design, synthesis and bioevaluation of PI3Kα-selective inhibitors as potential colorectal cancer drugs” (Eur J Med Chem, 2023).
The source made the active and inactive calls. The calls are words filed in the database; no cut-off is given here.

Assays:
[1] = Metabolic stability in Sprague-Dawley rat plasma assessed as compound remaining measured upto 3 hrs by LC-MS/MS analysis; assay type: ADME, cell-free
MCF7 [2] = assay: Antiproliferative activity against human MCF7 cells expressing PIK3CA with E545K mutation assessed as reduction in cell viability incubated for 24 to 48 hrs by CCK-8 assay; assay type: functional, cell-based
HEK-293T = assay: Cytotoxicity against human HEK293T cells assessed as reduction in cell viability at 10 uM incubated for 24 to 48 hrs by CCK-8 assay; assay type: toxicity, cell-based; conditions: time 24-48 hrs
HCT-116 [3] = assay: Antiproliferative activity against human HCT-116 cells assessed as inhibition of Akt phosphorylation incubated for 48 hrs by Western blotting analysis; assay type: functional, cell-based; conditions: dose 3-12 µM
MCF7 [4] = assay: Antiproliferative activity against human MCF7 cells assessed as reduction in cell viability incubated for 24 to 48 hrs by CCK-8 assay; assay type: functional, cell-based
TE-1 = assay: Antiproliferative activity against human TE-1 cells assessed as reduction in cell viability at 10 uM incubated for 24 to 48 hrs by CCK-8 assay; assay type: functional, cell-based; conditions: time lower […], time upper 48.0 hrs
K562 = assay: Antiproliferative activity against human K562 cells assessed as reduction in cell viability at 10 uM incubated for 24 to 48 hrs by CCK-8 assay; assay type: functional, cell-based; conditions: time lower […], time upper 48.0 hrs
A549 = assay: Antiproliferative activity against human A549 cells assessed as reduction in cell viability at 10 uM incubated for 24 to 48 hrs by CCK-8 assay; assay type: functional, cell-based; conditions: time lower […], time upper 48.0 hrs
L02 = assay: Cytotoxicity activity against human L02 cells assessed as reduction in cell viability at 10 uM incubated for 24 to 48 hrs by CCK-8 assay; assay type: toxicity, cell-based; conditions: l02, 10 µM, time 24-48 hrs
SF-126 = assay: Antiproliferative activity against human SF-126 cells assessed as reduction in cell viability at 10 uM incubated for 24 to 48 hrs by CCK-8 assay; assay type: functional, cell-based; conditions: time lower […], time upper 48.0 hrs
[5] = Cytotoxicity against human NCM460 cells assessed as reduction in cell viability incubated for 24 to 48 hrs by CCK-8 assay; assay type: toxicity, cell-based
[6] = MRT (0 to t) in Sprague-Dawley rat at 5 mg/kg, iv measured upto 24 hrs by LC-MS analysis; assay type: ADME, organism-based; conditions: in vivo
[7] = Metabolic stability in Sprague-Dawley rat liver microsomes assessed as half life at 5 ug/ml incubated for 1 hr in presence of NADPH by LC-MS/MS analysis; assay type: ADME, Microsome; conditions: dose 5 µg/ml
HepG2 = assay: Antiproliferative activity against human HepG2 cells assessed as reduction in cell viability at 10 uM incubated for 24 to 48 hrs by CCK-8 assay; assay type: functional, cell-based; conditions: time lower […], time upper 48.0 hrs
HCT-116 [8] = assay: Induction of cell cycle arrest at G1/G0 phase in human HCT-116 cells assessed as decrease in cyclinE1 expression incubated for 48 hrs by Western blotting analysis; assay type: functional, cell-based; conditions: dose 3-12 µM
[9] = molecular target: Serine/threonine-protein kinase mTOR (Homo sapiens, UniProt P42345); assay: Inhibition of mTOR (unknown origin) by lance ultra assay
Cytochrome P450 1A2 = Cytochrome P450 1A2 (Homo sapiens, UniProt P05177); assay: Inhibition of CYP1A2 in human liver microsomes using phenacetin as substrate pre-incubated for 30 mins followed by substrate addition and measured after 15 mins in presence of NADPH by LC/MS analysis; assay type: ADME, Microsome
Cytochrome P450 1A2, sequence (P05177 whole entry): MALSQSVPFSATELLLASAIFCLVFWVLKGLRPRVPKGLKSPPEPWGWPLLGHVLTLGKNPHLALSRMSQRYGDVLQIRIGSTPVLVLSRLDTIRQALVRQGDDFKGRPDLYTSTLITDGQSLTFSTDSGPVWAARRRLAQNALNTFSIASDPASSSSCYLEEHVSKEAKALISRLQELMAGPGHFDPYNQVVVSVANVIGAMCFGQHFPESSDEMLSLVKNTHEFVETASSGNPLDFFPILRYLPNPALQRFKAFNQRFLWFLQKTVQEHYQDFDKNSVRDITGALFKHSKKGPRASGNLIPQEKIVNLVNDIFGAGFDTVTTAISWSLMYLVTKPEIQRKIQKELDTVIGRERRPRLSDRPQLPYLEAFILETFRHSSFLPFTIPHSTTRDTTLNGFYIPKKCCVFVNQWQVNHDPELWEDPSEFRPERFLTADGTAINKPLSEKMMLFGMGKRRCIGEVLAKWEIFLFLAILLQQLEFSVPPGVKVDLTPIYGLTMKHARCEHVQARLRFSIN

Cytochrome P450 2C19 = Cytochrome P450 2C19 (Homo sapiens, UniProt P33261); assay: Inhibition of CYP2C19 in human liver microsomes using omeprazole as substrate pre-incubated for 30 mins followed by substrate addition and measured after 15 mins in presence of NADPH by LC/MS analysis; assay type: ADME, Microsome
Cytochrome P450 2C19, sequence (P33261 whole entry): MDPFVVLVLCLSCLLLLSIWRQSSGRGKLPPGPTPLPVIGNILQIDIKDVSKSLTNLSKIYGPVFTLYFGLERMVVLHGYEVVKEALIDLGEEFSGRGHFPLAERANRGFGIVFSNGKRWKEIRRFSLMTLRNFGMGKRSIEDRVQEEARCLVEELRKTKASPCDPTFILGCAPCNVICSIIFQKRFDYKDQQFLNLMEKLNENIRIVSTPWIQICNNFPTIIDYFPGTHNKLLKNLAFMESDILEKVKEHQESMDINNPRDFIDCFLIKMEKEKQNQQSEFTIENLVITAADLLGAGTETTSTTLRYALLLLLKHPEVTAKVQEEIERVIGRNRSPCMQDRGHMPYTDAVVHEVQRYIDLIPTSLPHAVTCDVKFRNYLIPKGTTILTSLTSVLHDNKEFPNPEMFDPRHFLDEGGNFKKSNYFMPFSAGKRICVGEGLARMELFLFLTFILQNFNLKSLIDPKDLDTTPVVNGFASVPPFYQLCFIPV

HCT-116 [10] = assay: Antiproliferative activity against human HCT-116 cells assessed as inhibition of PI3K phosphorylation incubated for 48 hrs by Western blotting analysis; assay type: functional, cell-based; conditions: dose 3-12 µM
HCT-116 [11] = assay: Induction of cell cycle arrest at G1/G0 phase in human HCT-116 cells assessed as decrease in cyclinD1 expression incubated for 48 hrs by Western blotting analysis; assay type: functional, cell-based; conditions: dose 3-12 µM
[12] = molecular target: Phosphatidylinositol 4,5-bisphosphate 3-kinase catalytic subunit alpha isoform (Homo sapiens, UniProt P42336); assay: Inhibition of PI3Kalpha (unknown origin) by ADP-Glo luminescent kinase assay
Phosphatidylinositol 4,5-bisphosphate 3-kinase catalytic subunit alpha isoform, sequence (P42336 whole entry, canonical isoform): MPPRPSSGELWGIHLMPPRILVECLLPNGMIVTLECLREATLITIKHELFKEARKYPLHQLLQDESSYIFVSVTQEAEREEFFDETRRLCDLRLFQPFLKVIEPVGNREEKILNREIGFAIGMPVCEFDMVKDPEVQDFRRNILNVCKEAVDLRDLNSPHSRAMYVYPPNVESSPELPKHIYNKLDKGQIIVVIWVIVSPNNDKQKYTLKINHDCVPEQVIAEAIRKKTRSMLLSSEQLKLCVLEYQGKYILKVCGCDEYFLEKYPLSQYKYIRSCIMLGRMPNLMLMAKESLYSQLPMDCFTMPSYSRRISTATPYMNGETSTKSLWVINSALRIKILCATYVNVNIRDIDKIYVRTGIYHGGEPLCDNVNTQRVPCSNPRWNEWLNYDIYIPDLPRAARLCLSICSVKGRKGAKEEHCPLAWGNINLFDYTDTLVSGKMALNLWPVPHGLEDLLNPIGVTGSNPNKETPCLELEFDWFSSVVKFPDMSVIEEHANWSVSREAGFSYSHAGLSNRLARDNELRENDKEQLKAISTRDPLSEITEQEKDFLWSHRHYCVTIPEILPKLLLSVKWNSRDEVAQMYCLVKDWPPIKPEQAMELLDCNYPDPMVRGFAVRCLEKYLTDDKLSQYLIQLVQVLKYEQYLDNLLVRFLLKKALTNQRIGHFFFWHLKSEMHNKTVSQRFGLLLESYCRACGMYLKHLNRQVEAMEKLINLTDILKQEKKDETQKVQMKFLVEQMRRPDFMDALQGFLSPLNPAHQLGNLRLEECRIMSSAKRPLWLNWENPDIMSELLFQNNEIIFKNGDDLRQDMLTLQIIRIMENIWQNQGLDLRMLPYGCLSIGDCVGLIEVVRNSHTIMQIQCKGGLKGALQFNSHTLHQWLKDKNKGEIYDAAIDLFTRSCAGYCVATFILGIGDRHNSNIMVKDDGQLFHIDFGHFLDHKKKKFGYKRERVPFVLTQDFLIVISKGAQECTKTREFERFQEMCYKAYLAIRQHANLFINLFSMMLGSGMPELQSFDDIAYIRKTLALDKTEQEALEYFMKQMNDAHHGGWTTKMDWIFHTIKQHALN

HCT-116 [13] = assay: Antiproliferative activity against human HCT-116 cells expressing PIK3CA with H1047R mutation assessed as reduction in cell viability incubated for 24 to 48 hrs by CCK-8 assay; assay type: functional, cell-based
MKN-45 = assay: Antiproliferative activity against human MKN-45 cells assessed as reduction in cell viability at 10 uM incubated for 24 to 48 hrs by CCK-8 assay; assay type: functional, cell-based; conditions: time lower […], time upper 48.0 hrs
[14] = Half life in Sprague-Dawley rat at 5 mg/kg, iv measured upto 24 hrs by LC-MS analysis; assay type: ADME, organism-based; conditions: in vivo
SW-620 = assay: Antiproliferative activity against human SW-620 cells assessed as reduction in cell viability incubated for 24 to 48 hrs by CCK-8 assay; assay type: functional, cell-based
HCT-116 [15] = assay: Inhibition of cell migration human HCT-116 cells incubated for 48 hrs by crystal violet staining based transwell assay; assay type: functional; conditions: dose 3-12 µM
[16] = AUC (0 to infinity) in Sprague-Dawley rat at 5 mg/kg, iv measured upto 24 hrs by LC-MS analysis; assay type: ADME, organism-based; conditions: in vivo
HCT-116 [17] = assay: Induction of apoptosis in human HCT-116 cells assessed as increased total apoptotic cells at 6 uM incubated for 48 hrs by Annexin V-FITC and propidium iodide staining based flow cytometry analysis (reference value: 4.22 %); assay type: functional
[18] = Metabolic stability in Sprague-Dawley rat liver microsomes assessed as intrinsic clearance at 5 ug/ml incubated for 1 hr in presence of NADPH by LC-MS/MS analysis; assay type: ADME, Microsome; conditions: dose 5 µg/ml
HCT-116 [19] = assay: Induction of apoptosis in human HCT-116 cells assessed as increase in total apoptotic cells at 3 uM incubated for 48 hrs by Annexin V-FITC and propidium iodide staining based flow cytometry analysis (reference value: 4.22 %); assay type: functional
HeLa = assay: Antiproliferative activity against human HeLa cells assessed as reduction in cell viability at 10 uM incubated for 24 to 48 hrs by CCK-8 assay; assay type: functional, cell-based; conditions: time lower […], time upper 48.0 hrs
[20] = Clearance in Sprague-Dawley rat at 5 mg/kg, iv measured upto 24 hrs by LC-MS analysis; assay type: ADME, organism-based; conditions: in vivo
5637 = assay: Antiproliferative activity against human 5637 cells assessed as reduction in cell viability at 10 uM incubated for 24 to 48 hrs by CCK-8 assay; assay type: functional, cell-based; conditions: time lower […], time upper 48.0 hrs
MDA-MB-231 = assay: Antiproliferative activity against human MDA-MB-231 cells assessed as reduction in cell viability incubated for 24 to 48 hrs by CCK-8 assay; assay type: functional, cell-based
[21] = system: Receptor-type tyrosine-protein kinase FLT3 (Homo sapiens), P36888 [D835Y]; assay: Inhibition of human FLT3 D835Y mutant at 1 uM
[22] = Cmax in Sprague-Dawley rat at 5 mg/kg, iv measured upto 24 hrs by LC-MS analysis; assay type: ADME, organism-based; conditions: in vivo
HCT-116 [23] = assay: Antiproliferative activity against human HCT-116 cells assessed as reduction in cell viability incubated for 48 hrs by CCK-8 assay; assay type: functional, cell-based; conditions: dose 20-80 µM
[24] = AUC (0 to t) in Sprague-Dawley rat at 5 mg/kg, iv measured upto 24 hrs by LC-MS analysis; assay type: ADME, organism-based; conditions: in vivo

Nc1nc2cc(-c3ccc4ncc(N5C[C@@H]6OCCO[C@@H]6C5)nc4c3)ccc2o1
Stability [1]: Stable | IC50 (MCF7 [2]): 3.32 µM | Activity (HEK-293T): Toxic | Activity (HCT-116 [3]): Dose-Dependent Effect | IC50 (MCF7 [4]): 0.75 µM | Activity (TE-1): Active | Activity (K562): Active | Activity (A549): Active | Activity (L02): Toxic | Activity (SF-126): Active | IC50 [5]: 49.7 µM | MRT last at 24 h [6]: 1.7 h | half-life at 5 ug/ml [7]: 3.61 h | Activity (HepG2): Active | Activity (HCT-116 [8]): Dose-Dependent Effect | IC50 [9]: 0.601 µM | IC50 (Cytochrome P450 1A2): > 10 µM | IC50 (Cytochrome P450 2C19): > 10 µM | Activity (HCT-116 [10]): Dose-Dependent Effect | Activity (HCT-116 [11]): Dose-Dependent Effect | IC50 [12]: 0.0025 µM | IC50 (HCT-116 [13]): 7.24 µM | Activity (MKN-45): Active | half-life [14]: 5.8 h | IC50 (SW-620): 9.85 µM | inhibition (HCT-116 [15]): Dose-Dependent Effect | AUC(0-inf) [16]: 8250 ng·h/mL | Activity (HCT-116 [17]): 12.31% | CLH [18]: 6 µL/min/mg | Activity (HCT-116 [19]): 5.99% | Activity (HeLa): Active | clearance [20]: 10 mL/min/kg | Activity 5637: Active | IC50 (MDA-MB-231): 13.7 µM | inhibition [21]: Active | Cmax [22]: 6000 ng/mL | Activity (HCT-116 [23]): Dose-Dependent Effect | AUC(0-t) at 24 h [24]: 8230 ng·h/mL
